The record followed here is patent US20230165873A1, “Methods of Use for Single Molecule Compounds Providing Multi-Target Inhibition to Treat Covid 19” (priority 2020, published 2023).

One test concerns the target T1, BRD4-1 (Homo sapiens, UniProt O60885).
T1 construct: BRD4-1
The test can be described thus: BRD4-1 in vitro inhibition. Format: binding. The procedure: (§1) The kinase or bromodomain inhibitory activity of a compound of the invention can be determined by routine methods known to the skilled artisan without undue experimentation, or by procuring relevant analysis by a commercial vendor offering such services. […] In vivo, PI3K inhibition can be determined from target tissue biopsies by standard tissue processing in which cells are disrupted and Western Blot analysis is performed to determine the presence or absence of pAKT (substrate of PI3K) relative to a control sample. PI3K inhibition assays and BTK inhibition assays are known in the art and can be procured commercially through vendors such as Reaction Biology (Malvern, PA). The activity of a compound of the invention as an inhibitor of a bromodomain-containing protein, such as a BET protein, including BRD2, BRD3, BRD4, and/or BRDT, or an isoform or mutant thereof, may be determined in vitro, in vivo, or in a cell line. In vitro assays include assays that determine inhibition of bromodomain-containing proteins. Alternatively, inhibitor binding may be determined by running a competition experiment where a provided compound is incubated with a bromodomain-containing protein, such as a BET protein bound to known ligands, labeled or unlabeled. In vitro bromodomain inhibition assays can be performed using Alpha Screen Technology (Perkin Elmer Life and Analytical Sciences, Shelton, CT). In vivo bromodomain inhibition can be determined indirectly by evaluating the amount of a protein whose gene transcription is influenced or controlled by the bromodomain protein, for example, MYCN protein transcription is controlled by BRD4 (J.E. Delmore et al., Cell 2011, 146, 904-917; A. Puissant, Cancer Discov. 2013, 3, 308-323).

The target of the next test is T2, BRD4-2 (Homo sapiens, UniProt O60885).
T2 construct: BRD4-2
In words: BRD4-2 in vitro inhibition. Format: binding. How it is done:
as §1

The next test deals with PI3K alpha (Homo sapiens, UniProt P42336). The test can be described thus: PI3K alpha in vitro inhibition. Format: biochemical. How it is done: as §1
Sequence of PI3K alpha (P42336 whole entry): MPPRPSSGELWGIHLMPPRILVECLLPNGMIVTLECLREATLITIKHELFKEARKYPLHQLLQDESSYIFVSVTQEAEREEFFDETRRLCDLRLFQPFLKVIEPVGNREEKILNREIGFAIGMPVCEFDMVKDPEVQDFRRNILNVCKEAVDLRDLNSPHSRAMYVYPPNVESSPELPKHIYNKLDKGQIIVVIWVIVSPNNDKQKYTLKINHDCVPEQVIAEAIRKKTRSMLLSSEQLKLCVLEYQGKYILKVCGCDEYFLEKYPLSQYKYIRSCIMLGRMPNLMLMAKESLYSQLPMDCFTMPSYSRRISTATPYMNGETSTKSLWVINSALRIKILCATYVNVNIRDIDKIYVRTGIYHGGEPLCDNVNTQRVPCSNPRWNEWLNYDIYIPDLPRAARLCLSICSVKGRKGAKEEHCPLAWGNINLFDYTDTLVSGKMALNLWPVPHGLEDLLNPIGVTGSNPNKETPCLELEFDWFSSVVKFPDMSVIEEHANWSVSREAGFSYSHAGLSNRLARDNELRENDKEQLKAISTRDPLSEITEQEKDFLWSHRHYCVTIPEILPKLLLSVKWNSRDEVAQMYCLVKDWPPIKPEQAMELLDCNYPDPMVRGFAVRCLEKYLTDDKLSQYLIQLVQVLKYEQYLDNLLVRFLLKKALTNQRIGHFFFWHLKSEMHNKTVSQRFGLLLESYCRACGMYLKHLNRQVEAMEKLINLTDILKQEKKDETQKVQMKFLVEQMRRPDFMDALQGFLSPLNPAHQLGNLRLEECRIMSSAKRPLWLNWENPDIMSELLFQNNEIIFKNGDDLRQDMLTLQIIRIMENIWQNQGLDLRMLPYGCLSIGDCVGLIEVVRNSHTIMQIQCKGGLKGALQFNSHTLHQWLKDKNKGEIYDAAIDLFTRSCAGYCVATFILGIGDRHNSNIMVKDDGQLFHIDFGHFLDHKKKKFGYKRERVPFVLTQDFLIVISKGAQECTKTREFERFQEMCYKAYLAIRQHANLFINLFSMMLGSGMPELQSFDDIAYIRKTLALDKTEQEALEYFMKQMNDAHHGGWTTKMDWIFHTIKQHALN
Sequence of PI3K alpha (P27986 whole entry partner): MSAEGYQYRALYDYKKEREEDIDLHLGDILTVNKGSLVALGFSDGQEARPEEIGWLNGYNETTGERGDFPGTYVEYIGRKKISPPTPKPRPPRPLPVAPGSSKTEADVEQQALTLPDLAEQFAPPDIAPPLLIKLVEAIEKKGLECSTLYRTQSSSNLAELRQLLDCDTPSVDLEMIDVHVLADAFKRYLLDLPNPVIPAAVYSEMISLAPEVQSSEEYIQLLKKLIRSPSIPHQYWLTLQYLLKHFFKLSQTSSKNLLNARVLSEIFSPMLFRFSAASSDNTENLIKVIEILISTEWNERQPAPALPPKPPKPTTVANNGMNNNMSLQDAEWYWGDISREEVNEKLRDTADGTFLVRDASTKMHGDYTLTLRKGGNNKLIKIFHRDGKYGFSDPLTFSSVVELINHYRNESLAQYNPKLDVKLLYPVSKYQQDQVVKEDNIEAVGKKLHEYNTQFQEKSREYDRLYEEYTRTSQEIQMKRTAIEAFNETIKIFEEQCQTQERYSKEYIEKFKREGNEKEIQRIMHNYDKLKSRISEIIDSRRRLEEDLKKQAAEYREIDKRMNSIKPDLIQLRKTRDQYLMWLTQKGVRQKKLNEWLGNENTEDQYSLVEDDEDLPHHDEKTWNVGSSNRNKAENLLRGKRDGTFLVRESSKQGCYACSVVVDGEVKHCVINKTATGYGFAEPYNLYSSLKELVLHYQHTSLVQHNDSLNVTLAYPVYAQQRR
In a further test the target is PI3K gamma (Homo sapiens, UniProt P48736). In words: PI3K gamma in vitro inhibition. Format: biochemical. The procedure: as §1
(§2) IC50 inhibition data against the indicated targets were determined for compounds of the invention using standard in vitro assays (Tables 8 and 9).

For the next test, the target named is PI3K delta (Homo sapiens, UniProt O00329). The test can be described thus: PI3K delta in vitro inhibition. Format: biochemical. The procedure:
as §1, §2

The next test deals with CDK4 cyclinD1 (Homo sapiens, UniProt P11802). In words: CDK4 cyclinD1 in vitro inhibition. Format: biochemical. How it is done:
as §1, §2

The target in another test is CDK6 cyclinD1 (Homo sapiens, UniProt Q00534). The test can be described thus: CDK6 cyclinD1 in vitro inhibition. Format: biochemical. How it is done:
as §1, §2

The target in the next test is Syk (Homo sapiens, UniProt P43405). The test can be described thus: Syk in vitro inhibition. Format: biochemical. How it is done: as §1, §2
The target of another test is PI3K beta (Homo sapiens, UniProt P42338). The test can be described thus: PI3K beta in vitro inhibition. Format: biochemical. How it is done: as §1
Sequence of PI3K beta (P42338 whole entry): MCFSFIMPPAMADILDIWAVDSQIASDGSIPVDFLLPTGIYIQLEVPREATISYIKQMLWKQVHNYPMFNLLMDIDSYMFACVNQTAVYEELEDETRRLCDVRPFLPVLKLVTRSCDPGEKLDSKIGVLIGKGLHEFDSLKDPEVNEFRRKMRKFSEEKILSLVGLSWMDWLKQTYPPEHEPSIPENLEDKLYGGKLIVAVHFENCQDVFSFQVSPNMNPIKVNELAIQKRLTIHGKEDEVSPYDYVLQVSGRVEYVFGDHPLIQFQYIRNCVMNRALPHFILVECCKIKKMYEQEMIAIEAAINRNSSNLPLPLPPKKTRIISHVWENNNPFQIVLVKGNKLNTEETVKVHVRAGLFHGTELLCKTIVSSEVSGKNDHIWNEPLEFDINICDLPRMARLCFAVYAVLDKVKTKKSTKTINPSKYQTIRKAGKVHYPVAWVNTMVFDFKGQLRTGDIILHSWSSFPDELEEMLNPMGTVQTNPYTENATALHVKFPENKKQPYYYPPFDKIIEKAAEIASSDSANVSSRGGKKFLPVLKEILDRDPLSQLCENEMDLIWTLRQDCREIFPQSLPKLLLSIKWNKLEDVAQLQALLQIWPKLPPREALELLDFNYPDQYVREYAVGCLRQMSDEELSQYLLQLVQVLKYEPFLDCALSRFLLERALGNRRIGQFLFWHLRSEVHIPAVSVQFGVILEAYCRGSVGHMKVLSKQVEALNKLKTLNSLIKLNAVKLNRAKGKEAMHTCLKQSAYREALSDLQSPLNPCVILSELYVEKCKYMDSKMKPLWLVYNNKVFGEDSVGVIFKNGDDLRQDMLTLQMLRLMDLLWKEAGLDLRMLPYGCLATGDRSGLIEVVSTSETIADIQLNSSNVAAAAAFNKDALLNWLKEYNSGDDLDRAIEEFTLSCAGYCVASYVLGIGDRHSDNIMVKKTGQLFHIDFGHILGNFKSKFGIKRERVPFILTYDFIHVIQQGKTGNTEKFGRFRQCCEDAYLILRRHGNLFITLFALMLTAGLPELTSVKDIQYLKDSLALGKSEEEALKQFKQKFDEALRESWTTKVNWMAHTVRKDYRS
Sequence of PI3K beta (P27986 whole entry partner): as the sequence (P27986 whole entry partner) above
In a further test the target is mTOR (Homo sapiens, UniProt P42345). The test can be described thus: mTOR in vitro inhibition. Format: biochemical. The procedure:
as §1, §2

The target in the next test is BTK (Homo sapiens, UniProt Q06187). The test can be described thus: BTK in vitro inhibition. Format: biochemical. The procedure: as §1, §2
Another test deals with BTK C481S (Homo sapiens, UniProt Q06187, C481S). The test can be described thus: BTK C481S in vitro inhibition. Format: biochemical. The procedure:
as §1, §2

Setting [1] is: read-out: IC50 inhibition PI3K gamma.

Where two headings read alike, the source gives them in different places.

Sequence of CDK6 cyclinD1 (Q00534 whole entry): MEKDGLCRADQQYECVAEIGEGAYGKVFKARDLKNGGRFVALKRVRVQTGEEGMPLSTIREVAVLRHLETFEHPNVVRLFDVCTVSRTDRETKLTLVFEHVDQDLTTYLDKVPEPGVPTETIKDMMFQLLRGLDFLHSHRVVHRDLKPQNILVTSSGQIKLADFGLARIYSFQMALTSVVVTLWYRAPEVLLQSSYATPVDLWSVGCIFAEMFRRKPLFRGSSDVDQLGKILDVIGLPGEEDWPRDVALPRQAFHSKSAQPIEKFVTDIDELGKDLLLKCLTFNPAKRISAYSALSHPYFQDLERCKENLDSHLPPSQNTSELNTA
Sequence of CDK6 cyclinD1 (P24385 whole entry partner): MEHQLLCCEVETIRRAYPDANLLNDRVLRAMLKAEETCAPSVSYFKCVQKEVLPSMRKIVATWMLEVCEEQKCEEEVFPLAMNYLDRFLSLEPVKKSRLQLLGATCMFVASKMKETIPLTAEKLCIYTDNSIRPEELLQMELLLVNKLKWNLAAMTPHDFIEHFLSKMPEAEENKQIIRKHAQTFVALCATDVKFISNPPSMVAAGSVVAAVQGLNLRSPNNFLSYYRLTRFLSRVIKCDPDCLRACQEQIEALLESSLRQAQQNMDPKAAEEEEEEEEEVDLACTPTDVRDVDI
Sequence of PI3K delta (O00329 whole entry): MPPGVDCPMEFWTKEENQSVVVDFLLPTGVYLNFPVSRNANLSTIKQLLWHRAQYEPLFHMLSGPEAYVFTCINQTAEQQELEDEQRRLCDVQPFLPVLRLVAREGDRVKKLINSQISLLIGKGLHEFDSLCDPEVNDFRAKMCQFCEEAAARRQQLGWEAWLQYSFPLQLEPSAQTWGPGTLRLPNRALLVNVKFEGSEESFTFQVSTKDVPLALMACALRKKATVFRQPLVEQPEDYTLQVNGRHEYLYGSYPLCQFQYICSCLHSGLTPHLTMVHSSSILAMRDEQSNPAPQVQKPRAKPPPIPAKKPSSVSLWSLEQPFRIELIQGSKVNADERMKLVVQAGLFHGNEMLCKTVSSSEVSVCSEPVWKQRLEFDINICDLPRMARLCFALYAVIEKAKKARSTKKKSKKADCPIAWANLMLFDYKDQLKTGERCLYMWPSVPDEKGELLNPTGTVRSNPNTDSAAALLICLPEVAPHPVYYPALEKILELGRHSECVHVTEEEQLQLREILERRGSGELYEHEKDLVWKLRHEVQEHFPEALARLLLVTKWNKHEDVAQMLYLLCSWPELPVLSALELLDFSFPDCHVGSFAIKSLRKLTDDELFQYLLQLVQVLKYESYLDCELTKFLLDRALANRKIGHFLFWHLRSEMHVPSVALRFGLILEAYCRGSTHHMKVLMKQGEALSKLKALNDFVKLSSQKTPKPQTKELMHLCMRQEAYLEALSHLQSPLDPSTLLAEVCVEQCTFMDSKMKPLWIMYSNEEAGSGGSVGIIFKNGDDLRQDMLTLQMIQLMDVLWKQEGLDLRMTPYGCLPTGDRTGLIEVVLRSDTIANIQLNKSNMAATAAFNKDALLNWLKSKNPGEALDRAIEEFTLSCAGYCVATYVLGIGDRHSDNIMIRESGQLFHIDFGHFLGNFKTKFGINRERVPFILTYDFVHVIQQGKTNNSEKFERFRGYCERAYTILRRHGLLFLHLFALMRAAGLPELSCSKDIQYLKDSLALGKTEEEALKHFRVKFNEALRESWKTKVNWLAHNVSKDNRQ
Sequence of PI3K delta (P27986 whole entry partner): as the sequence (P27986 whole entry partner) above
Sequence of CDK4 cyclinD1 (P11802 whole entry): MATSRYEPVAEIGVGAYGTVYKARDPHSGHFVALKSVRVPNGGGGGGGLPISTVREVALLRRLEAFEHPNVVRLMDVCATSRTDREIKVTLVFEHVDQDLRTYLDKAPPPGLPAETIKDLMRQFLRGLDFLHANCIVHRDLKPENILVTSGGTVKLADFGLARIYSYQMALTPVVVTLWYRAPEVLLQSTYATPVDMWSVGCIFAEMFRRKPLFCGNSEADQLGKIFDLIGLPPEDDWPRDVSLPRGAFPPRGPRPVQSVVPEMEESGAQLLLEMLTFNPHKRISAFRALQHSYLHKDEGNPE
Sequence of CDK4 cyclinD1 (P24385 whole entry partner): as the sequence (P24385 whole entry partner) above

As for `CC(C)(C)OC(=O)Nc1cc2cnc(Nc3ccc(-c4csc5c(=O)cc(N6CCOCC6)oc45)cc3)nc2n1C1CCCC1` [Compound 25-3], the IC50 at BRD4-1 is less than 0.5 µM; on BRD4-2 it was 0.5 to 1 µM; against PI3K alpha, less than 0.5 µM; on PI3K gamma (setting [1]), 1 to 10 µM; against PI3K delta, less than 0.5 µM; at CDK4 cyclinD1, less than 0.5 µM. Moreover, the IC50 against CDK6 cyclinD1 is less than 0.5 µM.

As to `O=c1cc(N2CCOCC2)oc2c(C#Cc3ccccc3)csc12` [Compound 5-4], the IC50 at BRD4-1 is 1 to 10 µM; on BRD4-2, 10 to 45 µM; at PI3K alpha, less than 0.5 µM; on PI3K gamma (setting [1]), less than 0.5 µM; against PI3K delta, less than 0.5 µM.

Regarding `Cc1nn(-c2ccnc(Nc3ccc(-c4csc5c(=O)cc(N6CCN(C(=O)OC(C)(C)C)CC6)oc45)cc3)n2)cc1CN1CC(O)C1` [Compound 56], the 50% inhibitory concentration (IC50) at BRD4-1 is 1 to 10 µM; at BRD4-2 it was greater than 45 µM; against PI3K alpha it was 1 to 10 µM; on PI3K gamma (setting [1]) it was 10 to 45 µM; at PI3K delta, 1 to 10 µM; at CDK4 cyclinD1, 1 to 10 µM. The IC50 on CDK6 cyclinD1 is 0.5 to 1 µM; against Syk, less than 0.5 µM.

With `Cc1nn(-c2ccnc(Nc3ccc(-c4csc5c(=O)cc(N6CCOCC6)oc45)cc3)n2)cc1CN(C)C` [Compound 57], the IC50 was 1 to 10 µM against BRD4-1; 1 to 10 µM against BRD4-2; 0.5 to 1 µM against PI3K alpha; 10 to 45 µM on PI3K gamma (setting [1]); 0.5 to 1 µM on PI3K delta; less than 0.5 µM on CDK4 cyclinD1. For the same compound, the IC50 against CDK6 cyclinD1 and against Syk was less than 0.5 µM throughout.

On to `Cc1nc2c(F)cc(-c3nc(Nc4ccc(-c5csc6c(=O)cc(N7CCOCC7)oc56)cc4)ncc3F)cc2n1C(C)C` [Compound 25-1], for which the concentration for half-maximal inhibition (IC50) was greater than 45 µM against BRD4-1; greater than 45 µM against BRD4-2; 10 to 45 µM against PI3K alpha; greater than 45 µM on PI3K gamma (setting [1]); 1 to 10 µM against PI3K delta; less than 0.5 µM at CDK4 cyclinD1. The same compound returned an IC50 at CDK6 cyclinD1 of less than 0.5 µM.

For the compound `CC(=O)c1c(C)c2cnc(Nc3ccc(-c4csc5c(=O)cc(N6CCOCC6)oc45)cc3)nc2n(C2CCCC2)c1=O` [Compound 25-2], the IC50 on BRD4-1 was less than 0.5 µM; at BRD4-2, less than 0.5 µM; at PI3K alpha, less than 0.5 µM; on PI3K gamma (setting [1]) it was 1 to 10 µM; against PI3K delta, less than 0.5 µM; at CDK4 cyclinD1, less than 0.5 µM. The same compound showed an IC50 at CDK6 cyclinD1 of less than 0.5 µM.

Take `CN(C)C(=O)c1cc2cnc(Nc3ccc(-c4csc5c(=O)cc(N6CCOCC6)oc45)nc3)nc2n1C1CCCC1` [Compound 7]: the IC50 on BRD4-1 was 10 to 45 µM; against BRD4-2, 1 to 10 µM; at PI3K alpha it was 1 to 10 µM; against PI3K beta it was 10 to 45 µM; at PI3K gamma (setting [1]), 10 to 45 µM; at CDK4 cyclinD1 it was less than 0.5 µM. Also, the IC50 on CDK6 cyclinD1 was less than 0.5 µM; at mTOR it was 1 to 10 µM.

For the compound `COc1ccc(C#Cc2csc3c(=O)cc(N4CCOCC4)oc23)cc1` [Compound 5-2], the IC50 on BRD4-1 is 0.5 to 1 µM; against BRD4-2, 1 to 10 µM; against PI3K alpha, less than 0.5 µM; against PI3K gamma (IC50 inhibition PI3K gamma), 0.5 to 1 µM; on PI3K delta it was less than 0.5 µM.

Regarding `Cc1nn(-c2ccnc(Nc3ccc(-c4csc5c(=O)cc(N6CCOCC6)oc45)cc3)n2)cc1CN1CCOCC1` [Compound 58], the IC50 is 1 to 10 µM at BRD4-1; 1 to 10 µM against BRD4-2; 0.5 to 1 µM against PI3K alpha; 10 to 45 µM at PI3K gamma (setting [1]); less than 0.5 µM against PI3K delta; greater than 45 µM on CDK4 cyclinD1. Also, the IC50 against CDK6 cyclinD1 and against Syk was greater than 45 µM throughout.

Turning to `Cc1nn(-c2ccnc(Nc3ccc(-c4csc5c(=O)cc(N6CCOCC6)oc45)cc3)n2)cc1CN1CC(O)C1` [Compound 52], the 50% inhibitory concentration (IC50) is greater than 45 µM at BRD4-1; greater than 45 µM on BRD4-2; 0.5 to 1 µM against PI3K alpha; 10 to 45 µM at PI3K gamma (setting [1]); 1 to 10 µM on PI3K delta; 10 to 45 µM against CDK4 cyclinD1. Also, the IC50 against CDK6 cyclinD1 and against Syk was less than 0.5 µM throughout.

As to `Cc1nn(-c2ccnc(Nc3ccc(-c4csc5c(=O)cc(N6CCNCC6)oc45)cc3)n2)cc1CN1CC(O)C1` [Compound 53], the half-inhibitory concentration (IC50) is 10 to 45 µM on BRD4-1; greater than 45 µM against BRD4-2; 1 to 10 µM against PI3K alpha; greater than 45 µM at PI3K gamma (setting [1]); 1 to 10 µM at PI3K delta; 1 to 10 µM on CDK4 cyclinD1. The IC50 against CDK6 cyclinD1 and at Syk was less than 0.5 µM in each case.

For `CN(C)C(=O)c1cc2cnc(Nc3ccc(-c4csc5c(=O)cc(N6CCOCC6)oc45)cc3)nc2n1C1CCCC1` [Compound 6], the IC50 was 1 to 10 µM on PI3K gamma (setting [1]), less than 0.5 µM at CDK4 cyclinD1, less than 0.5 µM at CDK6 cyclinD1 and 1 to 10 µM on mTOR.

Turning to `Cc1nn(-c2ccnc(Nc3ccc(-c4csc5c(=O)cc(N6CCNCC6)oc45)cc3)n2)cc1CN1CCC1` [Compound 55], the 50% inhibitory concentration (IC50) at BRD4-1 was 1 to 10 µM; on BRD4-2 it was greater than 45 µM; against PI3K alpha, greater than 45 µM; on PI3K gamma (setting [1]) it was greater than 45 µM; at PI3K delta it was 1 to 10 µM; on CDK4 cyclinD1, 1 to 10 µM. The IC50 against CDK6 cyclinD1 and at Syk was less than 0.5 µM throughout.

On to `COc1cc(C#Cc2csc3c(=O)cc(N4CCOCC4)oc23)cc(OC)c1` [Compound 5-3], for which the IC50 was less than 0.5 µM at BRD4-1; 0.5 to 1 µM against BRD4-2; 0.5 to 1 µM on PI3K alpha; 1 to 10 µM at PI3K gamma (setting [1]); less than 0.5 µM against PI3K delta.

On to `O=c1cc(N2CCOCC2)oc2c(C#Cc3ccsc3)csc12` [Compound 5-1], for which the IC50 against BRD4-1 is 10 to 45 µM; on BRD4-2, 10 to 45 µM; against PI3K alpha, less than 0.5 µM; at PI3K gamma (setting [1]), less than 0.5 µM; on PI3K delta it was less than 0.5 µM.

Take `C=CS(=O)(=O)N(c1cc(-c2csc3c(=O)cc(N4CCOCC4)oc23)ccc1OC)S(=O)(=O)C=C` [Compound 49]: the IC50 against BRD4-1 is less than 0.5 µM; on BRD4-2 it was 1 to 10 µM; on PI3K alpha, less than 0.5 µM; at PI3K beta, less than 0.5 µM; on PI3K gamma (setting [1]) it was less than 0.5 µM; against BTK, less than 0.5 µM. Moreover, on BTK C481S, the IC50 was 10 to 45 µM.

For the compound `Cc1nn(-c2ccnc(Nc3ccc(-c4csc5c(=O)cc(N6CCOCC6)oc45)cc3)n2)cc1CN1CCC1` [Compound 54], the IC50 at BRD4-1 was 1 to 10 µM; at BRD4-2, 1 to 10 µM; against PI3K alpha it was less than 0.5 µM; on PI3K gamma (setting [1]), 1 to 10 µM; on PI3K delta it was less than 0.5 µM; on CDK4 cyclinD1, greater than 45 µM. In addition, the values for the 50% inhibitory concentration (IC50) at CDK6 cyclinD1 and at Syk were greater than 45 µM and less than 0.5 µM, respectively.

As to `Cc1nn(-c2ccnc(Nc3ccc(-c4csc5c(=O)cc(N6CCOCC6)oc45)cc3)n2)cc1CN(C)CCO` [Compound 59], the IC50 at BRD4-1 lay in the range of 1 to 10 µM; at BRD4-2 it was 1 to 10 µM; against PI3K alpha, 1 to 10 µM; on PI3K gamma (setting [1]), 10 to 45 µM; against PI3K delta, 1 to 10 µM; against CDK4 cyclinD1, 1 to 10 µM. Further, the IC50 on CDK6 cyclinD1 lay in the range of 1 to 10 µM; against Syk, 0.5 to 1 µM.

In the case of `C=CS(=O)(=O)Nc1cc(-c2csc3c(=O)cc(N4CCOCC4)oc23)ccc1OC` [Compound 45], the half-maximal inhibitory concentration (IC50) against BRD4-1, against BRD4-2, on PI3K alpha, at PI3K beta, at PI3K gamma (setting [1]) and against BTK was less than 0.5 µM throughout. The IC50 against BTK C481S is greater than 45 µM.

Broadly, the IC50 is the concentration needed to halve the response being measured.
